Common to all, as to assay type: cell-based
The test system of one experiment is JAK1, JAK2, and JAK3. Put plainly: Immunoblot of JAK1/2/3 protein levels in MOLT-4 cells (selectivity of TYK2 reduction). As to conditions: MOLT-4 cells, 0.04, 0.2, 1, and 5 μM, 24 hours. As for the experimental part:
MOLT-4 cells were treated with CPD-038, CPD-039, and CPD-040 at 0.04, 0.2, 1, and 5 μM concentrations for 24 hours.
(§1) Rabbit anti-JAK1antibody (3344S), anti-JAK2 antibody (3230S), anti-JAK3 antibody (8827S), anti-TYK2 antibody (14193S), anti-STAT1 antibody (9167S), anti-STAT3 antibody (9139S), anti-phospho-STAT1 (Tyr701) antibody ([…]), anti-phospho-STAT3 (Tyr705) antibody (9145S), were purchased from Cell Signaling Technology; anti-β-actin antibody (ab8226) was from Abeam; HRP-conjugated anti-α-Tubulin (GNI4310-AT) antibody was purchased from GNI. Media and other cell culture reagents were purchased from Thermo Fisher.
(§2) Cultured cells were washed with cold PBS once and lysed in cold RIPA buffer supplemented with protease inhibitors and phosphatase inhibitors (Beyotime Biotechnology). The solutions were then incubated at 4° C. for 30 minutes with gentle agitation to fully lyse cells. Cell lysates were centrifuged at 13,000 rpm for 10 minutes at 4° C. and pellets were discarded. Total protein concentrations in the lysates were determined by BCA assays (Beyotime Biotechnology). Cell lysates were mixed with Laemmli loading buffer to 1× and heated at 99° C. for 5 min. Proteins were resolved on SDS-PAGE and visualized by chemiluminescence. Images were taken by a ChemiDoc MP Imaging system (Bio-Rad). Protein bands were quantitated using the accompanied software provided by Bio-Rad.

The target in experiment [1] is T1, TYK2 (Homo sapiens, UniProt P29597). Put plainly: TYK2 protein degradation in MOLT-4 cells by immunoblotting. The note with it: 24 hours; for TYK2 Degradation (0.5 μM) / TYK2 Degradation (5 μM): MOLT-4 cells; for Reduction of TYK2 protein levels over a dose range (FIG. 1): MOLT-4 cells, 0.04, 0.2, 1, and 5 μM. The arrangement: endogenous in cells; host or cells: MOLT-4. An outline of the steps:
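MOLT-4 cells were exposed to compounds at 0.5 and 5 μM for 24 h, then lysed in RIPA buffer with protease and phosphatase inhibitors. TYK2 was detected by SDS-PAGE immunoblot with chemiluminescence, and band densitometry gave percent degradation.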

The test system of experiment [2] is phosphorylation of STAT1 (Tyr701) and STAT3 (Tyr705). Kind of experiment: IFNα-induced STAT1/3 phosphorylation in Jurkat cells by immunoblotting. As to conditions: 3 or 30 nM, 16 hours, then IFNα (2000 IU) for 15 min. As for the experimental part: (§3) Jurkat cells were treated with DMSO or a dose range of heterobifunctional compounds CPD-155, CPD-158, and CPD-164 at 3 or 30 nM concentrations for 16 hours. Cells were subsequently treated with IFNα (2000 IU) for 15 min as indicated.
as §1, §2

Experiment [3] deals with T1, TYK2. Put plainly: TYK2 protein degradation in NOMO-1 cells by immunoblotting. The arrangement: endogenous in cells. The note with it: for TYK2 Degradation (NOMO-1, 10 nM) / TYK2 Degradation (NOMO-1, 100 nM): NOMO-1 cells; for Reduction of TYK2 protein levels over a dose range (FIG. 2): NOMO-1 cells, 0.1, 1, 10, 100 and 1000 nM, 16 hours. The procedure, abridged:
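NOMO-1 cells in RPMI 1640 with 10% FBS were exposed to compound at 0.1–1000 nM for 16 hours. TYK2 levels in RIPA lysates were measured by SDS-PAGE immunoblot with chemiluminescent detection and band densitometry.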

The target of experiment [4] is T1, TYK2. Kind of experiment: TYK2 protein levels in Jurkat cells by immunoblotting. Also on record: endogenous in cells. The note with it: 3 or 30 nM, 16 hours. The procedure:
as §3, §2

“Also recorded” adds a separate entry of the source.

T1 sequence (P29597 whole entry): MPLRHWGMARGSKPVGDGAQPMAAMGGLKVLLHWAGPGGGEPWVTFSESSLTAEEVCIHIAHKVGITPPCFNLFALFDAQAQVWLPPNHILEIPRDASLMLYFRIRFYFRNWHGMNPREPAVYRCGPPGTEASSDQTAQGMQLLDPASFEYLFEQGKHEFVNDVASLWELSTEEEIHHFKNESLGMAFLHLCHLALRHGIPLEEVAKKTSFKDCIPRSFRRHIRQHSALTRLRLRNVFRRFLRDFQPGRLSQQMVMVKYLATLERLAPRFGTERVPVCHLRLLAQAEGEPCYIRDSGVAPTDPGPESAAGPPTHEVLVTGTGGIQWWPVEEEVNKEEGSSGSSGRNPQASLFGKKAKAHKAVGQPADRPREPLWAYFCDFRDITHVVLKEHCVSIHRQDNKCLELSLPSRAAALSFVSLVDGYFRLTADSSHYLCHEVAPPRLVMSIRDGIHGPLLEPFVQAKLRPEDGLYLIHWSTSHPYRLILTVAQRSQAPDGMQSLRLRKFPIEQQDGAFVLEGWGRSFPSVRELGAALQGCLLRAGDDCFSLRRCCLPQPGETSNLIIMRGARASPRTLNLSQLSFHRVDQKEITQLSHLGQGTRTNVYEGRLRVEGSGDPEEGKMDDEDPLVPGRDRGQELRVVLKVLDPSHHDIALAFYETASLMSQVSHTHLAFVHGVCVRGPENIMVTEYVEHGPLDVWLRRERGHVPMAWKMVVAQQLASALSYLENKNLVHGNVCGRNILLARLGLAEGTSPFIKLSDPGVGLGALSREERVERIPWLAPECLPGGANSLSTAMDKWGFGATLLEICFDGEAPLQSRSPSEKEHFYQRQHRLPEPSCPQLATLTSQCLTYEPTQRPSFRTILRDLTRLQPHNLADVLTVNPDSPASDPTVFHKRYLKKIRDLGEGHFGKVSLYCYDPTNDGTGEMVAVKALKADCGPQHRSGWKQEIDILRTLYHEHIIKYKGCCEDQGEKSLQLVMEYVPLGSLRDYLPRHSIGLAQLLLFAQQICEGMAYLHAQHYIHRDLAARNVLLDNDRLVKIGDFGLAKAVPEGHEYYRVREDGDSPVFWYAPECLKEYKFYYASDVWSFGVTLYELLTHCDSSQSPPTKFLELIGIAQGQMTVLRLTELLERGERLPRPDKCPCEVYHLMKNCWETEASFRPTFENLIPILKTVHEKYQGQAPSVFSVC

As for `CNC(=O)c1nnc(NC(=O)CNC(=O)CCCCCCC(=O)N[C@H](C(=O)N2C[C@H](O)C[C@H]2C(=O)NCc2ccc(-c3scnc3C)cc2)C(C)(C)C)cc1Nc1cccc(-c2ncn(C)n2)c1OC` [CPD-038, N1-((S)-1-((2S,4R)-4-hydroxy-2-((4-(4-methylthiazol-5-yl)benzyl)carbamoyl)pyrrolidin-1-yl)-3,3-dimethyl-1-oxobutan-2-yl)-N8-(2-((5-((2-methoxy-3-(1-methyl-1H-1,2,4-triazol-3-yl)phenyl)amino)-6-(methylcarbamoyl)pyridazin-3-yl)amino)-2-oxoethyl)octanediamide], the “Selectivity of TYK2 protein reduction over JAK1, JAK2, and JAK3 (FIG. 1)” value (“Selectivity of TYK2 protein reduction” below) in the experiment on JAK1, JAK2, and JAK3 was “very selective at the reduction protein levels of TYK2 over JAK1, JAK2, and JAK3; also recorded: highly selective at the degradation of TYK2 over JAKT/2/3 proteins”. At TYK2 [1], the “TYK2 Degradation (0.5 μM)” value came out at 50%, the “TYK2 Degradation (5 μM)” value is recorded as 90% and the “Reduction of TYK2 protein levels over a dose range (FIG. 1)” value (shortened to “Reduction … over a dose range (FIG. 1)”) was “concentration-dependently reduced the TYK2 proteins levels; also recorded: reduce TYK2 protein levels in a concentration-dependent manner”.
`CNC(=O)c1nnc(NC(=O)CNC(=O)CCCCCCCC(=O)N[C@H](C(=O)N2C[C@H](O)C[C@H]2C(=O)NCc2ccc(-c3scnc3C)cc2)C(C)(C)C)cc1Nc1cccc(-c2ncn(C)n2)c1OC` [CPD-039, N1-((S)-1-((2S,4R)-4-hydroxy-2-((4-(4-methylthiazol-5-yl)benzyl)carbamoyl)pyrrolidin-1-yl)-3,3-dimethyl-1-oxobutan-2-yl)-N9-(2-((5-((2-methoxy-3-(1-methyl-1H-1,2,4-triazol-3-yl)phenyl)amino)-6-(methylcarbamoyl)pyridazin-3-yl)amino)-2-oxoethyl)nonanediamide]: in the experiment on JAK1, JAK2, and JAK3, the “Selectivity of TYK2 protein reduction” value was “very selective at the reduction protein levels of TYK2 over JAK1, JAK2, and JAK3; also recorded: highly selective at the degradation of TYK2 over JAKT/2/3 proteins”. In addition, on TYK2 [1], the “TYK2 Degradation (0.5 μM)” value stood at 60%, the “TYK2 Degradation (5 μM)” value came out at 90% and the “Reduction … over a dose range (FIG. 1)” value is “concentration-dependently reduced the TYK2 proteins levels; also recorded: reduce TYK2 protein levels in a concentration-dependent manner”.
Turning to `CNC(=O)c1nnc(NC(=O)CNC(=O)CCCCCCCCC(=O)N[C@H](C(=O)N2C[C@H](O)C[C@H]2C(=O)NCc2ccc(-c3scnc3C)cc2)C(C)(C)C)cc1Nc1cccc(-c2ncn(C)n2)c1OC` [CPD-040, N1-((S)-1-((2S,4R)-4-hydroxy-2-((4-(4-methylthiazol-5-yl)benzyl)carbamoyl)pyrrolidin-1-yl)-3,3-dimethyl-1-oxobutan-2-yl)-N10-(2-((5-((2-methoxy-3-(1-methyl-1H-1,2,4-triazol-3-yl)phenyl)amino)-6-(methylcarbamoyl)pyridazin-3-yl)amino)-2-oxoethyl)decanediamide], the “Selectivity of TYK2 protein reduction” value in the experiment on JAK1, JAK2, and JAK3 was “very selective at the reduction protein levels of TYK2 over JAK1, JAK2, and JAK3; also recorded: highly selective at the degradation of TYK2 over JAKT/2/3 proteins”. On TYK2 [1], the “TYK2 Degradation (0.5 μM)” value was 60%, the “TYK2 Degradation (5 μM)” value is 60% and the “Reduction … over a dose range (FIG. 1)” value was “concentration-dependently reduced the TYK2 proteins levels; also recorded: reduce TYK2 protein levels in a concentration-dependent manner”.
As to `CNC(=O)c1nnc(Nc2ccc(C(=O)NCCCCCNc3cccc4c3C(=O)N(C3CCC(=O)NC3=O)C4=O)cn2)cc1Nc1cccc(-c2ncn(C)n2)c1OC` (stereo not drawn) [CPD-155, 6-((5-((5-((2-(2,6-dioxopiperidin-3-yl)-1,3-dioxoisoindolin-4-yl)amino)pentyl)carbamoyl)pyridin-2-yl)amino)-4-((2-methoxy-3-(1-methyl-1H-1,2,4-triazol-3-yl)phenyl)amino)-N-methylpyridazine-3-carboxamide], the “Phosphorylation of STAT1 (Tyr701) and STAT3 (Tyr705) induced by IFNα (FIG. 3)” value (from here on “Phosphorylation of STAT1”) in experiment [2] was “concentration-dependently reduced phosphorylation of STAT1 (Tyr701) and STAT3 (Tyr705) induced by IFNα treatment; also recorded: significantly decreased STAT1/3 phosphorylation downstream of IFNα stimulation”. At TYK2 [3], the “TYK2 Degradation (NOMO-1, 10 nM)” value is “A (A: ≥60% TYK2 degradation)”; the “TYK2 Degradation (NOMO-1, 100 nM)” value is recorded as “A (A: ≥60% TYK2 degradation)”; the “Reduction of TYK2 protein levels over a dose range (FIG. 2)” value is “concentration-dependently reduced the TYK2 proteins levels; also recorded: highly potent in reducing TYK2 protein levels”. Also, at TYK2 [4], the “TYK2 protein levels in Jurkat cells (FIG. 3)” value (shortened to “TYK2 protein levels … (FIG. 3)”) was “reduced levels of TYK2 proteins”.
`CNC(=O)c1nnc(Nc2ccc(C(=O)NCCCCCCCCNc3cccc4c3C(=O)N(C3CCC(=O)NC3=O)C4=O)cn2)cc1Nc1cccc(-c2ncn(C)n2)c1OC` (stereo not drawn) [CPD-158, 6-((5-((8-((2-(2,6-dioxopiperidin-3-yl)-1,3-dioxoisoindolin-4-yl)amino)octyl)carbamoyl)pyridin-2-yl)amino)-4-((2-methoxy-3-(1-methyl-1H-1,2,4-triazol-3-yl)phenyl)amino)-N-methylpyridazine-3-carboxamide]: in experiment [2], the “Phosphorylation of STAT1” value is “concentration-dependently reduced phosphorylation of STAT1 (Tyr701) and STAT3 (Tyr705) induced by IFNα treatment; also recorded: significantly decreased STAT1/3 phosphorylation downstream of IFNα stimulation”. On TYK2 [3], the “TYK2 Degradation (NOMO-1, 10 nM)” value is “A (A: ≥60% TYK2 degradation)”; the “TYK2 Degradation (NOMO-1, 100 nM)” value is “B (B: <60% TYK2 degradation, and >20% TYK2 degradation)”; the “Reduction of TYK2 protein levels over a dose range (FIG. 2)” value is recorded as “concentration-dependently reduced the TYK2 proteins levels; also recorded: highly potent in reducing TYK2 protein levels”. In addition, the “TYK2 protein levels … (FIG. 3)” value at TYK2 [4] is “reduced levels of TYK2 proteins”.
In the case of `CNC(=O)c1nnc(Nc2ccc(C(=O)NCCCCCNc3ccc4c(c3)C(=O)N(C3CCC(=O)NC3=O)C4=O)cn2)cc1Nc1cccc(-c2ncn(C)n2)c1OC` (stereo not drawn) [CPD-164, 6-((5-((5-((2-(2,6-dioxopiperidin-3-yl)-1,3-dioxoisoindolin-5-yl)amino)pentyl)carbamoyl)pyridin-2-yl)amino)-4-((2-methoxy-3-(1-methyl-1H-1,2,4-triazol-3-yl)phenyl)amino)-N-methylpyridazine-3-carboxamide], the “Phosphorylation of STAT1” value in experiment [2] was “concentration-dependently reduced phosphorylation of STAT1 (Tyr701) and STAT3 (Tyr705) induced by IFNα treatment; also recorded: significantly decreased STAT1/3 phosphorylation downstream of IFNα stimulation”. On TYK2 [3], the “TYK2 Degradation (NOMO-1, 10 nM)” value is “A (A: ≥60% TYK2 degradation)”; the “TYK2 Degradation (NOMO-1, 100 nM)” value was “B (B: <60% TYK2 degradation, and >20% TYK2 degradation)”. On TYK2 [4], the “TYK2 protein levels … (FIG. 3)” value is “reduced levels of TYK2 proteins”.
For `CNC(=O)c1nnc(Nc2ccc(C(=O)NCCOCCNc3ccc4c(c3)C(=O)N(C3CCC(=O)NC3=O)C4=O)cn2)cc1Nc1cccc(-c2ncn(C)n2)c1OC` (stereo not drawn) [CPD-168, 6-((5-((2-(2-((2-(2,6-dioxopiperidin-3-yl)-1,3-dioxoisoindolin-5-yl)amino)ethoxy)ethyl)carbamoyl)pyridin-2-yl)amino)-4-((2-methoxy-3-(1-methyl-1H-1,2,4-triazol-3-yl)phenyl)amino)-N-methylpyridazine-3-carboxamide], the “TYK2 Degradation (NOMO-1, 100 nM)” value at TYK2 [3] is recorded as “C (C: ≤20% TYK2 degradation)”.

For the origin of these results see patent US20240059671A1, “TYROSINE KINASE 2 (TYK2) DEGRADATION COMPOUNDS AND METHODS OF USE” (CULLGEN (SHANGHAI), INC., priority 2020, published 2024).
